The assay relates to Human Umbilical Vein Endothelial cells (VEGF-stimulated HUVEC proliferation). The assay is described as follows: HUVEC Proliferation Assay (VEGF-stimulated). Format: cell-based. The note with it: VEGF 50 ng/mL, 72 h incubation, CyQuant readout, read-out: inhibited VEGF-stimulated HUVEC proliferation at a level below (IC50). The method, then:
Human Umbilical Vein Endothelial cells are purchased from Clonetics, Inc., as cryopreserved cells harvested from a pool of donors. These cells, at passage 1, are thawed and expanded in EBM-2 complete medium, until passage 2 or 3. The cells are trypsinized, washed in DMEM+10% FBS+antibiotics, and spun at 1000 rpm for 10 min. Prior to centrifugation of the cells, a small amount is collected for a cell count. After centrifugation, the medium is discarded, and the cells are resuspended in the appropriate volume of DMEM+10% FBS+antibiotics to achieve a concentration of 3×10^5 cells/mL. Another cell count is performed to confirm the cell concentration. The cells are diluted to 3×10^4 cells/mL in DMEM+10% FBS+antibiotics, and 100 μL of cells are added to a 96-well plate. The cells are incubated at 37° C. for 22 h.
Prior to the completion of the incubation period, compound dilutions are prepared. Five-point, five-fold serial dilutions are prepared in DMSO, at concentrations 400-fold greater than the final concentrations desired. 2.5 μL of each compound dilution are diluted further in a total of 1 mL DMEM+10% FBS+antibiotics (400× dilution). Medium containing 0.25% DMSO is also prepared for the 0 μM compound sample. At the 22-hour timepoint, the medium is removed from the cells, and 100 μL of each compound dilution is added. The cells are incubated at 37° C. for 2-3 h.
During the compound pre-incubation period, the growth factors are diluted to the appropriate concentrations. Solutions of DMEM+10% FBS+antibiotics, containing either VEGF or bFGF at the following concentrations: 50, 10, 2, 0.4, 0.08, and 0 ng/mL are prepared. For the compound-treated cells, solutions of VEGF at 550 ng/mL or bFGF at 220 ng/mL for 50 ng/mL or 20 ng/mL final concentrations, respectively, are prepared since 10 μL of each will be added to the cells (110 μL final volume). At the appropriate time after adding the compounds, the growth factors are added. VEGF is added to one set of plates, while bFGF is added to another set of plates. For the growth factor control curves, the media on wells B4-G6 of plates 1 and 2 are replaced with media containing VEGF or bFGF at the varying concentrations (50-0 ng/mL). The cells are incubated at 37° C. for an additional 72 h.
At the completion of the 72 h incubation period, the medium is removed, and the cells are washed twice with PBS. After the second wash with PBS, the plates are tapped gently to remove excess PBS, and the cells are placed at −70° C. for at least 30 min. The cells are thawed and analyzed using the CyQuant fluorescent dye (Molecular Probes C-7026), following the manufacturer's recommendations. The plates are read on a Victor/Wallac 1420 workstation at 485 nm/530 nm (excitation/emission). Raw data are collected and analyzed using a 4-parameter fit equation in XLFit. IC50 values are then determined.

On to `CC(=O)N1CC(C)(C)c2ccc(NC(=O)c3cccnc3Nc3ccc4cn[nH]c4c3)cc21` [Example 87, N-(1-Acetyl-3,3-dimethyl-2,3-dihydro-1H-indol-6-yl)-2-(1H-indazol-6-ylamino)-nicotinamide], for which the IC50 was less than 0.05 µM.
With `CN1CCC(C(C)(C)c2ccc(NC(=O)c3cccnc3Nc3ccc4cn[nH]c4c3)cc2)CC1` [Example 88, 2-(1H-Indazol-6-ylamino)-N-{4-[1-methyl-1-(1-methyl-piperidin-4-yl)-ethyl]-phenyl}-nicotinamide], the IC50 was less than 0.05 µM.
As to `CC(=O)N1CC(C)(C)Oc2ccc(NC(=O)c3cccnc3Nc3ccc4cn[nH]c4c3)cc21` [Example 89, N-(4-Acetyl-2,2-dimethyl-3,4-dihydro-2H-benzo[1,4]oxazin-6-yl)-2-(1H-indazol-6-ylamino)-nicotinamide], the IC50 is less than 0.05 µM.
For the compound `CN1CCC(c2cc(NC(=O)c3cccnc3Nc3ccc4cn[nH]c4c3)cc(C(F)(F)F)c2)CC1` [Example 90, 2-(1H-Indazol-6-ylamino)-N-[3-(1-methyl-piperidin-4-yl)-5-trifluoromethyl-phenyl]-nicotinamide], the IC50 was less than 0.05 µM.
In the case of `CN1CC(C)(C)Oc2ccc(NC(=O)c3cccnc3Nc3ccc4cn[nH]c4c3)cc21` [Example 92, 2-(1H-Indazol-6-ylamino)-N-(2,2,4-trimethyl-3,4-dihydro-2H-benzo[1,4]oxazin-6-yl)-nicotinamide], the IC50 is less than 0.05 µM.
`CC(C)(C)c1ccc(NC(=O)c2cccnc2Nc2ccc3cn[nH]c3c2)cc1OCC1CCNCC1` [Example 93, N-[4-tert-Butyl-3-(piperidin-4-ylmethoxy)-phenyl]-2-(1H-indazol-6-ylamino)-nicotinamide]: the IC50 is less than 0.05 µM.
Under `CC(=O)N1Cc2cc(NC(=O)c3cccnc3Nc3ccc4cn[nH]c4c3)ccc2C(C)(C)C1` [Example 94, N-(2-Acetyl-4,4-dimethyl-1,2,3,4-tetrahydro-isoquinolin-7-yl)-2-(1H-indazol-6-ylamino)-nicotinamide] stands less than 0.05 µM; under `CC(C)(C)OC(=O)N1CCC[C@H]1COc1cc(NC(=O)c2cccnc2Nc2ccc3cn[nH]c3c2)ccc1C(C)(C)C` [Example 95, 1-Boc-2-(2-tert-Butyl-5-{[2-(1H-indazol-6-ylamino)-pyridine-3-carbonyl]-amino}-phenoxymethyl)-pyrrolidine], less than 0.05 µM.
The figure for `CC(C)(C)c1ccc(NC(=O)c2cccnc2Nc2ccc3cn[nH]c3c2)cc1OC[C@@H]1CCCN1` [Example 96, N-[4-tert-Butyl-3-(pyrrolidin-2-ylmethoxy)-phenyl]-2-(1H-indazol-6-ylamino)-nicotinamide] is less than 0.05 µM.
Under `O=C(Nc1cc(OC[C@@H]2CCCN2)cc(C(F)(F)F)c1)c1cccnc1Nc1ccc2cn[nH]c2c1` [Example 97, 2-(1H-Indazol-6-ylamino)-N-[3-(2S-pyrrolidin-2-ylmethoxy)-5-trifluoromethyl-phenyl]-nicotinamide] stands less than 0.05 µM; under `CC(C)(C)c1ccc(NC(=O)c2cccnc2Nc2ccc3cn[nH]c3c2)cc1N1CCNCC1` [Example 98, N-(4-tert-Butyl-3-piperazin-1-yl-phenyl)-2-(1H-indazol-6-ylamino)-nicotinamide], less than 0.05 µM; under `CC1(C)CNc2cc(NC(=O)c3cccnc3Nc3ccc4cn[nH]c4c3)ccc21` [Example 99, N-(3,3dimethyl-2,3-dihydro-1H-indol-6-yl)-2-(1H-indazol-6-ylamino)-nicotinamide], less than 0.05 µM.
Turning to `CC1(C)CN(C2CCNCC2)c2cc(NC(=O)c3cccnc3Nc3ccc4cn[nH]c4c3)ccc21` [Example 100, N-(3,3-Dimethyl-1-piperidin-4-yl-2,3-dihydro-1H-indol-6-yl)-2-(1H-indazol-6-ylamino)-nicotinamide], the IC50 is less than 0.05 µM.
Under `CC1(C)CNc2cc(NC(=O)c3cccnc3Nc3ccc4cn[nH]c4c3)ccc2O1` [Example 101, N-(2,2-Dimethyl-3,4-dihydro-2H-benzo[1,4]oxazin-6-yl)-2-(1H-indazol-6-ylamino)-nicotinamide] stands less than 0.05 µM; under `CCCN1CCN(c2cc(NC(=O)c3cccnc3Nc3ccc4cn[nH]c4c3)ccc2C(C)(C)C)CC1` [Example 102, N-[4-tert-Butyl-3-(4-propyl-piperazin-1-yl)-phenyl]-2-(1H-indazol-6-ylamino)-nicotinamide], less than 0.05 µM.
Under `CC(C)N1CCN(c2cc(NC(=O)c3cccnc3Nc3ccc4cn[nH]c4c3)ccc2C(C)(C)C)CC1` [Example 103, N-[4-tert-Butyl-3-(4-isopropyl-piperazin-1-yl)-phenyl]-2-(1H-indazol-6-ylamino)-nicotinamide] stands less than 0.05 µM; under `CN1CCC[C@H]1COc1cc(NC(=O)c2cccnc2Nc2ccc3cn[nH]c3c2)cc(C(F)(F)F)c1` [Example 104, 2-(1H-Indazol-6-ylamino)-N-[3-(1-methylpyrrolidin-2-ylmethoxy)-5-trifluoromethyl-phenyl]-nicotinamide], less than 0.05 µM; under `CC1(C)CNC(=O)c2cc(NC(=O)c3cccnc3Nc3ccc4cn[nH]c4c3)ccc21` [Example 105, N-(4,4-Dimethyl-1-oxo-1,2,3,4-tetrahydro-isoquinolin-7-yl)-2-(1H-indazol-6-ylamino)-nicotinamide], less than 0.05 µM.
The figure for `CC1(C)COc2cc(NC(=O)c3cccnc3Nc3ccc4cn[nH]c4c3)ccc21` [Example 106, N-(3,3-Dimethyl-2,3-dihydro-benzofuran-6-yl)-2-(1H-indazol-6-ylamino)-nicotinamide] is less than 0.05 µM; for `CN(C)CC(=O)N1CC(C)(C)c2ccc(NC(=O)c3cccnc3Nc3ccc4cn[nH]c4c3)cc21` [Example 107, N-[1-(2-Dimethylamino-acetyl)-3,3-dimethyl-2,3-dihydro-1H-indol-6-yl]-2-(1H-indazol-6-ylamino)-nicotinamide] it is less than 0.05 µM.
Regarding `CN1CCN(Cc2cc(NC(=O)c3cccnc3Nc3ccc4cn[nH]c4c3)ccc2C(F)(F)C(F)(F)F)CC1` [Example 108, 2-(1H-Indazol-6-ylamino)-N-[3-(4-methyl-piperazin-1-ylmethyl)-4-pentafluoroethyl-phenyl]-nicotinamide], the IC50 is less than 0.05 µM.
`O=C(Nc1ccc(C(F)(F)C(F)(F)F)c(CN2CCOCC2)c1)c1cccnc1Nc1ccc2cn[nH]c2c1` [Example 110, 2-(1H-Indazol-6-ylamino)-N-(3-morpholin-4-ylmethyl-4-pentafluoroethyl-phenyl)-nicotinamide]: the IC50 was less than 0.05 µM.
The figure for `O=C(Nc1ccc(C(F)(F)C(F)(F)F)c(CN2CCNCC2)c1)c1cccnc1Nc1ccc2cn[nH]c2c1` [Example 111, 2-(1H-Indazol-6-ylamino)-N-(4-pentafluoroethyl-3-piperazin-1-ylmethyl-phenyl)-nicotinamide] is less than 0.05 µM.
The figure for `CC(C)(C)c1ccc(NC(=O)c2cccnc2Nc2ccc3cn[nH]c3c2)cc1NCCO` [Example 115, N-[4-tert-Butyl-3-(2-hydroxy-ethylamino)-phenyl]-2-(1H-indazol-6-ylamino)-nicotinamide] is less than 0.05 µM.
For `CC(C)(C)c1ccc(NC(=O)c2cccnc2Nc2ccc3cn[nH]c3c2)cc1NCCN1CCOCC1` [Example 116, N-[4-tert-Butyl-3-(2-morpholin-4-yl-ethylamino)-phenyl]-2-(1H-indazol-6-ylamino)-nicotinamide], the IC50 was less than 0.05 µM.
The figure for `O=C(Nc1ccc2c(c1)CN(CCN1CCOCC1)CC2)c1cccnc1Nc1ccc2cn[nH]c2c1` [Example 118, 2-(1H-Indazol-6-ylamino)-N-[2-(2-morpholin-4-yl-ethyl)-1,2,3,4-tetrahydro-isoquinolin-7-yl]-nicotinamide] is less than 0.05 µM.
As to `O=C(Nc1ccc2c(C(F)(F)F)cc(=O)oc2c1)c1cccnc1Nc1ccc2cn[nH]c2c1` [Example 120, 2-(1H-Indazol-6-ylamino)-N-(2-oxo-4-trifluoromethyl-2H-chromen-7-yl)-nicotinamide], the IC50 was less than 0.05 µM.
Under `CN1CC=C(c2cc(NC(=O)c3cccnc3Nc3ccc4cn[nH]c4c3)cc(C(F)(F)F)c2)CC1` [Example 121, 2-(1H-Indazol-6-ylamino)-N-[3-(1-methyl-1,2,3,6-tetrahydro-pyridin-4-yl)-5-trifluoromethyl-phenyl]-nicotinamide] stands less than 0.05 µM.
